The text below walks through data of publication PMC8662641, “Site-Specific Labeling of Endogenous Proteins Using CoLDR Chemistry” (Journal of the American Chemical Society, 2021).

For test [1], the target named is T1, BTK-1h (Homo sapiens, UniProt Q06187).
T1 construct: The BTK kinase domain was diluted to 2 μM in the buffer, and 2 μM 1h was added; made in house
The test can be described thus: High-throughput screening with 1h-labeled BTK. Format: binding. Here is the method: The collection was composed of BTK binding compounds obtained in our previous luminescence screen[37] (Data set S2). […] The resulting BTK-1h (50 μL) was added to the inhibitors.

Test [2] deals with BTK (Homo sapiens, UniProt Q06187). Further details: BTK kinase domain was expressed and purified as previously reported; made in house; method as in Reddi et al., J. Am. Chem. Soc. 2021, 143 (13), 4979–4992. Conditions: ref Reddi et al., J. Am. Chem. Soc. 2021, 143 (13), 4979–4992; cited from earlier work.
The mark [3] stands for this setting: Dataset S2A, 200 μM compound, BTK-1h, 32 °C, 10 min.

T1 sequence (Q06187 402-655): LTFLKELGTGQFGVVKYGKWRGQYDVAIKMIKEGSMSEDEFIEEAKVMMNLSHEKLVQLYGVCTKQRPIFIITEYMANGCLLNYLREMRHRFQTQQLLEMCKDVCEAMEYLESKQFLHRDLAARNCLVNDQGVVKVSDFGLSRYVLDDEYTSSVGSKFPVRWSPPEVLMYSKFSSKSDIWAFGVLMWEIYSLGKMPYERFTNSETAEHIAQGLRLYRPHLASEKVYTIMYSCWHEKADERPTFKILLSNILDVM
Chain of BTK (Q06187 402-655 limits assumed): as the sequence (Q06187 402-655) above

As to `CC(C)(C)c1cc(/C=C(\C#N)C(N)=S)cc(C(C)(C)C)c1O` [PCM-0064936-001], in test [1] (setting [3]), the “FI (650)/FI (620)” value came to 0.9335 and the “FI (BTK-1h)/FI (BTK-1h+Inhibitor) at 620 nm” value stood at 1.037. In test [2], the “BTK Inhibition reported in luminescence assay*” value (from here on “BTK Inhibition reported”) is 82.8.
Consider `C=CC(=O)N1CCC(Oc2cc3c(Nc4ccc(Cl)c(Cl)c4F)ncnc3cc2OC)CC1` [PCM-0215416-001], for which, in test [1] (setting [3]), the “FI (650)/FI (620)” value came to 1.023 and the “FI (BTK-1h)/FI (BTK-1h+Inhibitor) at 620 nm” value is 1.082. The “BTK Inhibition reported” value in test [2] is 119.3.
Consider `C=CC(=O)N1CCN(C(=O)CNc2cc(I)c(Cl)cc2O)CC1` [PCM-0215367-001], for which, in test [1] (setting [3]), the “FI (650)/FI (620)” value is on record as 1.111 and the “FI (BTK-1h)/FI (BTK-1h+Inhibitor) at 620 nm” value is 1.004. In addition, in test [2], the “BTK Inhibition reported” value is recorded as 84.9.
In the case of `C=CC(=O)N1CC[C@@H](Oc2nc(Nc3ccc(N4CCC(N5CCN(C)CC5)CC4)cc3)c(C(N)=O)nc2CC)C1` [PCM-0215788-001], in test [1] (setting [3]), the “FI (650)/FI (620)” value is 1.046 and the “FI (BTK-1h)/FI (BTK-1h+Inhibitor) at 620 nm” value was found to be 1.04. Also, the “BTK Inhibition reported” value in test [2] is given as 91.
Take `Cc1ccc(C(=O)Nc2ccc(CN3CCN(C)CC3)c(C(F)(F)F)c2)cc1C#Cc1cnc2cccnn12` [PCM-0095174-003]: in test [1] (setting [3]), the “FI (650)/FI (620)” value was found to be 1.022 and the “FI (BTK-1h)/FI (BTK-1h+Inhibitor) at 620 nm” value was found to be 1.075. In test [2], the “BTK Inhibition reported” value is on record as 92.4.
For the compound `Cc1cc(C(=O)Nc2nc3cccc(Cl)c3n2[C@@H]2CCCCN(C(=O)/C=C/CN(C)C)C2)ccn1` [PCM-0215804-001], in test [1] (setting [3]), the “FI (650)/FI (620)” value was 1.045 and the “FI (BTK-1h)/FI (BTK-1h+Inhibitor) at 620 nm” value came out at 1.069. In test [2], the “BTK Inhibition reported” value was 73.8.
In the case of `Cn1cc(-c2[nH]c3cc(NC(=O)[C@H](N)C4CCCCC4)cc4c3c2C=NNC4=O)cn1` [PCM-0095372-002], in test [1] (setting [3]), the “FI (650)/FI (620)” value stood at 2.04 and the “FI (BTK-1h)/FI (BTK-1h+Inhibitor) at 620 nm” value stood at 1.441. In test [2], the “BTK Inhibition reported” value was 111.
As to `CCOc1nc2cccc(C(=O)OC(C)OC(=O)OC3CCCCC3)c2n1Cc1ccc(-c2ccccc2-c2nn[nH]n2)cc1` (centres unmarked) [PCM-0090385-001], in test [1] (setting [3]), the “FI (650)/FI (620)” value is reported as 0.8568 and the “FI (BTK-1h)/FI (BTK-1h+Inhibitor) at 620 nm” value worked out at 1.076. Moreover, in test [2], the “BTK Inhibition reported” value is listed as 53.7.
As for `COc1cc(N2CCC(N3CCN(C)CC3)CC2)ccc1Nc1ncnc(Nc2ccccc2S(=O)(=O)C(C)C)n1` [PCM-0215273-001], in test [1] (setting [3]), the “FI (650)/FI (620)” value came to 1.877 and the “FI (BTK-1h)/FI (BTK-1h+Inhibitor) at 620 nm” value is given as 1.327. Moreover, the “BTK Inhibition reported” value in test [2] is 89.
As to `C[C@@H](Oc1ccc2[nH]nc(/C=C/c3cnn(CCO)c3)c2c1)c1c(Cl)cncc1Cl` [PCM-0215376-001], in test [1] (setting [3]), the “FI (650)/FI (620)” value was found to be 1.5356 and the “FI (BTK-1h)/FI (BTK-1h+Inhibitor) at 620 nm” value stood at 1.156. Besides, the “BTK Inhibition reported” value in test [2] is 101.4.
For the compound `CN(C)C/C=C/C(=O)Nc1ccc(C(=O)Nc2cccc(Nc3ncc(Cl)c(-c4c[nH]c5ccccc45)n3)c2)cc1` [PCM-0213464-002, THZ1 2HCl], the “FI (650)/FI (620)” value in test [1] (setting [3]) stood at 2.745; in test [1] (Dataset S2C, BTK-1h with inhibitor), 2.341. For the same compound, the “FI (BTK-1h)/FI (BTK-1h+Inhibitor) at 620 nm” value in test [1] (setting [3]) is given as 2.341. The “BTK Inhibition reported” value in test [2] is on record as 116.6.
Consider `Cc1cc(O)c(-c2ccc([C@@H](C)CN)cc2)c2c1[nH]c(=O)c1sccc12` [PCM-0215772-001], for which, in test [1] (setting [3]), the “FI (650)/FI (620)” value came to 1.102 and the “FI (BTK-1h)/FI (BTK-1h+Inhibitor) at 620 nm” value is on record as 1.063. Moreover, the “BTK Inhibition reported” value in test [2] was 70.3.
Turning to `Cc1cnc(C(=O)N[C@H]2CCCCC/C=C\[C@@H]3C[C@@]3(C(=O)NS(=O)(=O)C3CC3)NC(=O)[C@@H]3C[C@@H](Oc4nc5ccccc5c5ccccc45)CN3C2=O)cn1` [PCM-0216057-001], in test [1] (setting [3]), the “FI (650)/FI (620)” value is recorded as 0.9612 and the “FI (BTK-1h)/FI (BTK-1h+Inhibitor) at 620 nm” value is on record as 1.053. Moreover, in test [2], the “BTK Inhibition reported” value was 53.3.
As for `Cc1[nH]c(/C=C2\C(=O)Nc3ccccc32)c(C)c1CCC(=O)O` [PCM-0095149-002], in test [1] (setting [3]), the “FI (650)/FI (620)” value worked out at 0.9795 and the “FI (BTK-1h)/FI (BTK-1h+Inhibitor) at 620 nm” value stood at 1.036. For the same compound, the “BTK Inhibition reported” value in test [2] is 52.4.
`CN(C)C/C=C/C(=O)Nc1cc2c(Nc3ccc(F)c(Cl)c3)ncnc2cc1O[C@H]1CCOC1` [PCM-0094907-003]: in test [1] (setting [3]), the “FI (650)/FI (620)” value is on record as 0.9254 and the “FI (BTK-1h)/FI (BTK-1h+Inhibitor) at 620 nm” value is 1.084. Besides, the “BTK Inhibition reported” value in test [2] is given as 84.8.
On to `Cc1cc(-c2ccc(N=Nc3ccc4c(S(=O)(=O)[O-])cc(S(=O)(=O)[O-])c(N)c4c3O)c(C)c2)ccc1N=Nc1ccc2c(S(=O)(=O)[O-])cc(S(=O)(=O)[O-])c(N)c2c1O.[Na+].[Na+].[Na+].[Na+]` [PCM-0214845-001], for which the “FI (BTK-1h)/FI (BTK-1h+Inhibitor) at 620 nm” value in test [1] (setting [3]) stood at 7.121. For the same compound, the “BTK Inhibition reported” value in test [2] is 125.3.
`CC#CC(=O)N1CC[C@@H](n2c(=O)n(-c3ccc(Oc4ccccc4)cc3)c3c(N)ncnc32)C1` [PCM-0215519-001, ONO-4059]: the “FI (BTK-1h)/FI (BTK-1h+Inhibitor) at 620 nm” value in test [1] (setting [3]) was 2.544; in test [1] (Dataset S2B, 200 μM inhibitor added to BTK-1h (2 μm)), 4.404.
